What was measured:
glucocorticoid receptor = target: T1, glucocorticoid receptor (Rattus norvegicus, UniProt P06536); experiment: relative molar bonding affinity to glucocorticoid receptor (competitive bonding); type: binding; settings: dexamethasone = 100%; thymus cytosol of adrenalectomized rat; 3H-dexamethasone, 20 nM; 18 h, 0-4° C.
T1 construct: thymus cytosol of the adrenalectomized rat; from tissue; host or cells: thymus (cytosol) of adrenalectomized rat
T1 sequence (P06536 1-795): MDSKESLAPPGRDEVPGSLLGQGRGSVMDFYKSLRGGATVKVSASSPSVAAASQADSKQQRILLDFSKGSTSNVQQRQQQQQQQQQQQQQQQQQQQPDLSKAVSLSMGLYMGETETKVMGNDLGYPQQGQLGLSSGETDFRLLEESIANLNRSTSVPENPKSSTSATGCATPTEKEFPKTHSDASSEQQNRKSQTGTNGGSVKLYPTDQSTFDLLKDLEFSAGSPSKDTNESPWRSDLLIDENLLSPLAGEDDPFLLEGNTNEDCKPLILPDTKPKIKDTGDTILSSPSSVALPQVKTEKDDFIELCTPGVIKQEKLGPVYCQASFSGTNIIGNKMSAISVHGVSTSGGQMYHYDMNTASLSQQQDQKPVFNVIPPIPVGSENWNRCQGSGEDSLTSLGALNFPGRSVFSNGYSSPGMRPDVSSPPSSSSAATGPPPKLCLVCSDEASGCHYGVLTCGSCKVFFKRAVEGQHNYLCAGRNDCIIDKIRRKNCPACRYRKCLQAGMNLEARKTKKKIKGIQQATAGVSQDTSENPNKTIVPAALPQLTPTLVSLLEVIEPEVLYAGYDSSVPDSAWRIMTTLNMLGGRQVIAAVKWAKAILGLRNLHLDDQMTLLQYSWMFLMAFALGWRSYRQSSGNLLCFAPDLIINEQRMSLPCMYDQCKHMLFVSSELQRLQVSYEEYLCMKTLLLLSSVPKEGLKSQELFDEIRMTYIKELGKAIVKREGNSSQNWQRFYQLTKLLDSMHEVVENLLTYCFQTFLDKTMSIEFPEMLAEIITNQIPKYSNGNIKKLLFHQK
Description: (§1) Measurement of bonding affinity for receptors
(§2) Receptor bonding affinity was determined by competitive bonding of a specifically binding ^3 H labelled hormone (tracer) and the compound to be tested to receptors in the cytosol from animal target organs. It was tried to obtain receptor saturation and a balanced reaction. The following incubation conditions were selected:
Glucocorticoid receptor: thymus cytosol of the adrenalectomized rat, thymi kept at -30° C., buffer: TED. Tracer: ^3 H-dexamethasone, 20 nM; reference substance: dexamethasone.
(§3) After an incubation period of 18 hours at 0°-4° C., bonded and free steroid was separated by mixing in active carbon/dextrane (1%/0.1%), centrifuging off and measuring the bonded ^3 H activity in the supernatant.
The IC50 for the compound to be tested and for the reference substance were determined from measurements in series of concentrations.

oestrogen receptor = target: T2, oestrogen receptor (Oryctolagus cuniculus, UniProt G1SML6); experiment: relative molar bonding affinity to oestrogen receptor (competitive bonding); type: binding; settings: estradiol = 100%; uterine cytosol of immature rabbit; 3H-ethinyl estradiol, 3 nM; 18 h, 0-4° C.
T2 construct: uterine cytosol of the immature rabbit; from tissue; host or cells: uterus (cytosol) of immature rabbit
T2 sequence (G1SML6 1-598): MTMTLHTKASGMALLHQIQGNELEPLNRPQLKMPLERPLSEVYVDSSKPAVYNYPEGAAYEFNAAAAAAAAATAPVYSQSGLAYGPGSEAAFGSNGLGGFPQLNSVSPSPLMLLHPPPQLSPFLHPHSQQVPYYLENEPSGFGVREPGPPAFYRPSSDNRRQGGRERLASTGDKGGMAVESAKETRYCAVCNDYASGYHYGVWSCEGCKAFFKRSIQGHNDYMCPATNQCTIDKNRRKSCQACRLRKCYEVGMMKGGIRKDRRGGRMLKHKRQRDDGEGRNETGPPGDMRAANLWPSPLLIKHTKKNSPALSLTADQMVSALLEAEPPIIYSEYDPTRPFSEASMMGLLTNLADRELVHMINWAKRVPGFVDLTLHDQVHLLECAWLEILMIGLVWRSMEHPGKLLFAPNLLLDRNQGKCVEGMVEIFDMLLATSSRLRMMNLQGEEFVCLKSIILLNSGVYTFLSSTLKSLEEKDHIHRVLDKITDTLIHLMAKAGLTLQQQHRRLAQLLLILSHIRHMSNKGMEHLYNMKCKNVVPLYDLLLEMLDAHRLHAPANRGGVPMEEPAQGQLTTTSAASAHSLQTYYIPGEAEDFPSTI
Description: as §1, §2
Oestrogen receptor: uterine cytosol of the immature rabbit, kept at -30° C. in TED buffer with 250 mM of saccharose. Tracer: ^3 H-ethinyl estradiol, 3 nM; reference substance: 17β-estradiol.
as §3
The IC50 for the compound to be tested and for the reference substance were determined from measurements in series of concentrations. The quotient of both values (×100%) is the relative molar bonding affinity.

For COC[C@]1(OC)CC[C@H]2[C@@H]3CCC4=CC(=O)CCC4=C3[C@@H](c3ccc(C=NO)cc3)C[C@@]21C [Example 1, 11β-[4-(hydroximinomethyl)phenyl]-17β-methoxy-17α-methoxymethyl-estra-4,9-diene-3-on], the “relative molar bonding affinity (RBA) to glucocorticoid receptor” value (glucocorticoid receptor) was 78% and the “relative molar bonding affinity (RBA) to oestrogen rec.” value (oestrogen receptor) was less than 0.1%.

Source: patent publication US5693628A, “11-benzaldoxime-estra-diene derivatives, methods for their production and pharmaceuticals containing these compounds” (priority 1994, dated 1997)
